{
  "source": "patent US20250312499A1",
  "about": "“KISSPEPTIN RECEPTOR (KISS1R) TARGETED THERAPEUTICS AND USES THEREOF” (priority 2024, published 2025)",
  "note": "Numbered stars: 1 amine (or outer) side, 2 acyl side, 3 side chain; on linkers, the order of the positions; unused ones are H or OH. Square brackets hold non-standard residues; d marks the D form. Peptide text beside a SMILES is read from it. * marks the point of attachment. DOTA = O=C(O)CN1CCN(CC(=O)O)CCN(CC(=O)*)CCN(CC(=O)O)CC1; Gly(N-(3-F-4-Me-benzyl)) = Cc1ccc(CNCC(=O)*)cc1F; Butanoyl(4-(4-I-phenyl)) = O=C(CCCc1ccc(I)cc1)*; X16 = O=C(c1ccc(-c2ccccc2)c(OCCCN[*:1])c1)[*:2]; Api(1-amidino) = N=C(N)N1CCC(N)(C(=O)O)CC1; Hydrocinnamoyl(4-I) = O=C(CCc1ccc(I)cc1)*; X3 = CNC(=N)N1CCC(N[*:1])(C(=O)[*:2])CC1; Phe(3-F) = N[C@@H](Cc1cccc(F)c1)C(=O)O; 2Nal = N[C@@H](Cc1ccc2ccccc2c1)C(=O)O; d2Nal = N[C@H](Cc1ccc2ccccc2c1)C(=O)O; X1 = O=C(CN1CCC(N[*:1])CC1)[*:2]; dCya = N[C@H](CS(=O)(=O)O)C(=O)O; 4Pal = N[C@@H](Cc1ccncc1)C(=O)O; 2Thi = N[C@@H](Cc1cccs1)C(=O)O; Lauroyl = CCCCCCCCCCCC(=O)*; 4Amb = NCc1ccc(C(=O)O)cc1; Api = NC1(C(=O)O)CCNCC1; PEG2 = NCCOCCOCCC(=O)O; Ahx = NCCCCCC(=O)O; azaGly = NNC(=O)O; Sar = CNCC(=O)O",
  "data": [
    {"target": "human kisspeptin receptor (Homo sapiens (Human), UniProt Q969F8)", "sequence (Q969F8 whole entry)": "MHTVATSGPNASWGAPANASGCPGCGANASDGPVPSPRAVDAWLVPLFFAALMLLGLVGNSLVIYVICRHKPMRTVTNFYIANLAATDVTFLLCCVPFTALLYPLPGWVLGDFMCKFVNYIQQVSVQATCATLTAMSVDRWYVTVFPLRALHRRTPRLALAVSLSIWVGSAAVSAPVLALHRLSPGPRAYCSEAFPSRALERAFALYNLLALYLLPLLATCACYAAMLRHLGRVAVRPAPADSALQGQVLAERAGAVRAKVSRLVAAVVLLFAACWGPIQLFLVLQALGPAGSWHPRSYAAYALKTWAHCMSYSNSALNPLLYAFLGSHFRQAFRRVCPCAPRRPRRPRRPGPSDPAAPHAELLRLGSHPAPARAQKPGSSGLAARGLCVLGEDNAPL", "assay": "Human KISS1R binding assay (membrane competition binding)", "conditions": "90 min at room temperature; competition with 0.2 nM [125I]-metastin (45-54); Flp-In T-Rex 293 kisspeptin membranes; metal complexes nonradioactive Ga, In, Lu; read-out: hKiSSR Binding Ki (90 min)", "description": "Crude membrane fractions are prepared from Flp-In T-Rex 293 (Thermo Fisher) cell line expressing the human kisspeptin receptor. The cells are grown to 85-100% confluence on standard tissue culture dishes in Dulbecco's Modified Eagles Medium (DMEM) (Corning) supplemented with 10% FBS (Gemini), 1% penicillin-streptomycin-glutamine (Gibco), 500 μg/mL hygromycin, and 15 μg/mL blastacidin. 48 hrs prior to preparing membranes 10 μg/ml of tetracycline is added to the culture media to induce receptor expression. To prepare membranes, cells are scraped and collected in 1× Dulbecco's phosphate buffered saline (Corning) and then pelleted at 1000 RPMs. The cell pellet is reconstituted in membrane preparation buffer (20 mM HEPES, 6 mM MgCl2 and 1 mM EGTA, protease inhibitor tablets (Pierce), pH 7.4) and placed in a cell disruption vessel (Parr Instrument company) at 1000 PSI for 30 min on ice. The pressurized contents are then released and spun down at 1000 RPMs and the supernatant is collected and further centrifuged at 15,000 RPMs to pellet the membranes. The membrane pellet is resuspended in membrane preparation buffer, snap frozen and stored at −80° C. for later use.\nThe human kisspeptin membrane binding assay utilizes the following components: radiolabel [^125I]-metastin (45-54) (human) (Perkinhmer), crude Flp-In T-Rex 293 kisspeptin membranes, and competing small molecule and peptide ligands. The assay is initiated by combining in assay buffer (50 mM TrisHCl, 5 mM MgCl2, 2 mM EGTA, 10 mM CaCl2, 0.1% BSA, pH 7.4) a dose response of competing ligand (final concentrations are typically 0-10,000 nM), 5-10 μg of Flp-In T-Rex 293 kisspeptin membranes, and 0.2 n M [^125I]-metastin (45-54) in a 96-well assay plate and allowed to incubate 90 minutes at room temperature. Assay contents are then filtered through unifilter CF/C: microplates (PerkinElmer) pre-soaked with 0.5% BSA and washed with 9×400 μL of cold wash buffer (10 mM HEPES, 500 mM NaCl, 0.1% Tween-20, pH7.4). Assay plates are read using a Microbeta^2 (PerkinElmer) and Ki values for compounds are determined using a GraphPad Prism 9.3 non-linear regression analysis.", "units": {"Ki": "nM"}, "values": [
      {"smiles": "CC(C)C[C@H](NC(=O)NNC(=O)[C@H](Cc1ccccc1)NC(=O)[C@@H](NC(=O)[C@H](CC(N)=O)NC(=O)[C@@H](Cc1c[nH]c2ccccc12)NC(=O)[C@@H](Cc1ccc(O)cc1)NC(=O)CCCCCNC(=O)CN1CCN(CC(=O)O)CCN(CC(=O)O)CCN(CC(=O)O)CC1)[C@@H](C)O)C(=O)NC1(C(=O)N[C@@H](Cc2c[nH]c3ccccc23)C(N)=O)CCN(C(=N)N)CC1", "note": "[Compound 6] ({DOTA-Ahx}-[dY][dW]NTF[azaGly]L[Api(1-amidino)]W-NH2)", "Ki": "< 10"},
      {"smiles": "CNC(=N)N1CCC(NC(=O)[C@H](CC(C)C)NC(=O)NNC(=O)[C@H](Cc2ccccc2)NC(=O)[C@@H](NC(=O)[C@H](CC(N)=O)NC(=O)[C@@H](Cc2c[nH]c3ccccc23)NC(=O)[C@@H](Cc2ccc(O)cc2)NC(=O)CCCCCNC(=O)CN2CCN(CC(=O)O)CCN(CC(=O)O)CCN(CC(=O)O)CC2)[C@@H](C)O)(C(=O)N[C@@H](Cc2c[nH]c3ccccc23)C(N)=O)CC1", "note": "[Compound 91] ({DOTA-Ahx}-[dY][dW]NTF[azaGly]L[X3]W-NH2)", "Ki": "< 10"},
      {"smiles": "Cc1ccc(CNCC(=O)N2CCC(NC(=O)[C@H](CC(C)C)NC(=O)NNC(=O)[C@H](Cc3cccs3)NC(=O)[C@@H](NC(=O)[C@H](CC(N)=O)NC(=O)[C@H](CCC(=O)O)NC(=O)CN3CCC(NC(=O)CN4CCN(CC(=O)O)CCN(CC(=O)O)CCN(CC(=O)O)CC4)CC3)[C@@H](C)O)(C(=O)N[C@@H](Cc3c[nH]c4ccccc34)C(N)=O)CC2)cc1F", "note": "[Compound 218] ({DOTA}-[X1]ENT[2Thi][azaGly]L[Api](Gly(N-(3-F-4-Me-benzyl)))W-NH2)", "Ki": "< 10"},
      {"smiles": "CC(C)C[C@H](NC(=O)NNC(=O)[C@H](Cc1ccccc1)NC(=O)[C@@H](NC(=O)[C@H](CC(N)=O)NC(=O)[C@@H](Cc1ccc2ccccc2c1)NC(=O)[C@@H](Cc1ccc(O)cc1)NC(=O)CCCCCNC(=O)[C@@H](CCCCNC(=O)CCCc1ccc(I)cc1)NC(=O)CCCCCNC(=O)CN1CCN(CC(=O)O)CCN(CC(=O)O)CCN(CC(=O)O)CC1)[C@@H](C)O)C(=O)NC1(C(=O)N[C@@H](Cc2c[nH]c3ccccc23)C(N)=O)CCN(C(=N)N)CC1", "note": "[Compound 337] ({DOTA-Ahx}-[dK](Butanoyl(4-(4-I-phenyl)))[Ahx][dY][d2Nal]NTF[azaGly]L[Api(1-amidino)]W-NH2)", "Ki": "< 10"},
      {"smiles": "CC(C)C[C@H](NC(=O)NNC(=O)[C@H](Cc1ccccc1)NC(=O)[C@@H](NC(=O)[C@H](CC(N)=O)NC(=O)[C@@H](CCCCNC(=O)CN1CCN(CC(=O)O)CCN(CC(=O)O)CCN(CC(=O)O)CC1)NC(=O)[C@@H](Cc1ccc(O)cc1)NC(=O)CCOCCOCCNC(=O)CCc1ccc(I)cc1)[C@@H](C)O)C(=O)NC1(C(=O)N[C@@H](Cc2c[nH]c3ccccc23)C(N)=O)CCN(C(=N)N)CC1", "note": "[Compound 334] ({Hydrocinnamoyl(4-I)-PEG2}-[dY][dK](DOTA)NTF[azaGly]L[Api(1-amidino)]W-NH2)", "Ki": "< 10"},
      {"smiles": "Cc1ccc(CNCC(=O)N2CCC(NC(=O)[C@H](CC(C)C)NC(=O)NNC(=O)[C@H](Cc3ccccc3)NC(=O)[C@@H](NC(=O)[C@H](CC(N)=O)NC(=O)[C@@H](Cc3c[nH]c4ccccc34)NC(=O)[C@@H](Cc3ccc(O)cc3)NC(=O)CCCCCNC(=O)[C@@H](CS(=O)(=O)O)NC(=O)CN3CCN(CC(=O)O)CCN(CC(=O)O)CCN(CC(=O)O)CC3)[C@@H](C)O)(C(=O)N[C@@H](Cc3c[nH]c4ccccc34)C(N)=O)CC2)cc1F", "note": "[Compound 115] ({DOTA}-[dCya][Ahx][dY][dW]NTF[azaGly]L[Api](Gly(N-(3-F-4-Me-benzyl)))W-NH2)", "Ki": "< 10"},
      {"smiles": "Cc1ccc(CNCC(=O)N2CCC(NC(=O)[C@H](CC(C)C)NC(=O)NNC(=O)[C@H](Cc3ccccc3)NC(=O)[C@@H](NC(=O)CN3CCC(NC(=O)CN4CCN(CC(=O)O)CCN(CC(=O)O)CCN(CC(=O)O)CC4)CC3)[C@@H](C)O)(C(=O)N[C@@H](Cc3c[nH]c4ccccc34)C(N)=O)CC2)cc1F", "note": "[Compound 233] ({DOTA}-[X1]TF[azaGly]L[Api](Gly(N-(3-F-4-Me-benzyl)))W-NH2)", "Ki": "< 10"},
      {"smiles": "Cc1ccc(CNCC(=O)N2CCC(NC(=O)[C@H](CC(C)C)NC(=O)NNC(=O)[C@H](Cc3ccccc3)NC(=O)[C@@H](NC(=O)[C@H](CC(N)=O)NC(=O)[C@H](Cc3ccc4ccccc4c3)NC(=O)[C@@H](Cc3ccc(O)cc3)NC(=O)CCCCCNC(=O)CN3CCN(CC(=O)O)CCN(CC(=O)O)CCN(CC(=O)O)CC3)[C@@H](C)O)(C(=O)N[C@@H](Cc3c[nH]c4ccccc34)C(N)=O)CC2)cc1F", "note": "[Compound 118] ({DOTA-Ahx}-[dY][2Nal]NTF[azaGly]L[Api](Gly(N-(3-F-4-Me-benzyl)))W-NH2)", "Ki": "< 10"},
      {"smiles": "Cc1ccc(CNCC(=O)N2CCC(NC(=O)[C@H](CC(C)C)NC(=O)NNC(=O)c3ccc(-c4ccccc4)c(OCCCNC(=O)CN4CCC(NC(=O)CN5CCN(CC(=O)O)CCN(CC(=O)O)CCN(CC(=O)O)CC5)CC4)c3)(C(=O)N[C@@H](Cc3c[nH]c4ccccc34)C(N)=O)CC2)cc1F", "note": "[Compound 216] ({DOTA}-[X1][X16][azaGly]L[Api](Gly(N-(3-F-4-Me-benzyl)))W-NH2)", "Ki": "< 10"},
      {"smiles": "CC(C)C[C@H](NC(=O)NNC(=O)[C@H](Cc1ccccc1)NC(=O)c1ccc(CNC(=O)[C@H](Cc2ccc3ccccc3c2)NC(=O)[C@@H](Cc2ccc(O)cc2)NC(=O)CN2CCN(CC(=O)O)CCN(CC(=O)O)CCN(CC(=O)O)CC2)cc1)C(=O)NC1(C(=O)N[C@@H](Cc2ccccc2)C(N)=O)CCN(C(=N)N)CC1", "note": "[Compound 288] ({DOTA}-[dY][2Nal][4Amb]F[azaGly]L[Api(1-amidino)]F-NH2)", "Ki": "< 10"},
      {"smiles": "Cc1ccc(CNCC(=O)N2CCC(NC(=O)[C@H](CC(C)C)NC(=O)NNC(=O)[C@H](Cc3ccccc3)NC(=O)[C@@H](NC(=O)[C@H](CC(N)=O)NC(=O)[C@@H](Cc3c[nH]c4ccccc34)NC(=O)[C@H](N)Cc3ccc(O)cc3)[C@@H](C)O)(C(=O)N[C@@H](Cc3c[nH]c4ccccc34)C(N)=O)CC2)cc1F", "note": "[Compound 402] (H-[dY][dW]NTF[azaGly]L[Api](Gly(N-(3-F-4-Me-benzyl)))W-NH2)", "Ki": "< 10"},
      {"smiles": "Cc1ccc(CNCC(=O)N2CCC(NC(=O)[C@H](CC(C)C)NC(=O)NNC(=O)[C@H](Cc3cccc(F)c3)NC(=O)[C@@H](NC(=O)[C@H](CC(N)=O)NC(=O)[C@H](CCC(=O)O)NC(=O)[C@@H](Cc3ccc(O)cc3)NC(=O)CCCCCNC(=O)CN3CCN(CC(=O)O)CCN(CC(=O)O)CCN(CC(=O)O)CC3)[C@@H](C)O)(C(=O)N[C@@H](Cc3c[nH]c4ccccc34)C(N)=O)CC2)cc1F", "note": "[Compound 36] ({DOTA-Ahx}-[dY]ENT[Phe(3-F)][azaGly]L[Api](Gly(N-(3-F-4-Me-benzyl)))W-NH2)", "Ki": "< 10"},
      {"smiles": "Cc1ccc(CNCC(=O)N2CCC(NC(=O)[C@H](CC(C)C)NC(=O)NNC(=O)[C@H](Cc3ccccc3)NC(=O)CN3CCC(NC(=O)CN4CCN(CC(=O)O)CCN(CC(=O)O)CCN(CC(=O)O)CC4)CC3)(C(=O)N[C@@H](Cc3c[nH]cn3)C(N)=O)CC2)cc1F", "note": "[Compound 248] ({DOTA}-[X1]F[azaGly]L[Api](Gly(N-(3-F-4-Me-benzyl)))H-NH2)", "Ki": "> 100"},
      {"smiles": "CCCCCCCCCCCC(=O)N[C@H](Cc1ccc(O)cc1)C(=O)N[C@H](Cc1ccc2ccccc2c1)C(=O)N[C@@H](CC(N)=O)C(=O)N[C@H](C(=O)N[C@@H](Cc1ccccc1)C(=O)NNC(=O)N[C@@H](CC(C)C)C(=O)NC1(C(=O)N[C@@H](Cc2c[nH]c3ccccc23)C(N)=O)CCN(C(=O)CNC)CC1)[C@@H](C)O", "note": "[Compound 400] (Lauroyl-[dY][d2Nal]NTF[azaGly]L[Api](Sar)W-NH2)", "Ki": "< 10"},
      {"smiles": "CC(C)C[C@H](NC(=O)NNC(=O)[C@H](Cc1ccccc1)NC(=O)[C@@H](NC(=O)[C@H](CC(N)=O)NC(=O)[C@H](Cc1ccc2ccccc2c1)NC(=O)[C@@H](Cc1ccc(O)cc1)NC(=O)CCCCCNC(=O)CN1CCN(CC(=O)O)CCN(CC(=O)O)CCN(CC(=O)O)CC1)[C@@H](C)O)C(=O)NC1(C(=O)N[C@@H](Cc2ccncc2)C(N)=O)CCN(C(=N)N)CC1", "note": "[Compound 275] ({DOTA-Ahx}-[dY][2Nal]NTF[azaGly]L[Api(1-amidino)][4Pal]-NH2)", "Ki": "< 10"},
      {"smiles": "CC(C)C[C@H](NC(=O)NNC(=O)[C@H](Cc1ccccc1)NC(=O)[C@@H](NC(=O)[C@H](CC(N)=O)NC(=O)[C@@H](Cc1ccc2ccccc2c1)NC(=O)[C@@H](Cc1ccc(O)cc1)NC(=O)CCCCCNC(=O)CN1CCN(CC(=O)O)CCN(CC(=O)O)CCN(CC(=O)O)CC1)[C@@H](C)O)C(=O)NC1(C(=O)N[C@@H](Cc2ccc(O)cc2)C(N)=O)CCN(C(=N)N)CC1", "note": "[Compound 185] ({DOTA-Ahx}-[dY][d2Nal]NTF[azaGly]L[Api(1-amidino)]Y-NH2)", "Ki": "< 10"}
    ]}
  ]
}
